Read-outs that look alike come from different tables or passages of the source.
Columns and labels:
Experiment in all cases: biochemical
Parameters in all cases: Eurofins KinaseProfiler full panel at Km ATP, residual kinase activity (%) relative to DMSO
Abl(m) = molecular target: T1, Abl(m) (Mus musculus, UniProt P00520)
T1 construct: gene Abl1
Outline: (§1)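 Two 10 µM single-concentration screens were run: a competition-binding screen, in which DNA-tagged kinase bound to immobilized ligands was quantified by qPCR, and a radiometric activity panel at Km ATP. Each is expressed as residual kinase activity (%).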

CDKL2(h) = molecular target: T2, CDKL2(h) (Homo sapiens, UniProt Q92772)
T2 sequence (Q92772 1-493): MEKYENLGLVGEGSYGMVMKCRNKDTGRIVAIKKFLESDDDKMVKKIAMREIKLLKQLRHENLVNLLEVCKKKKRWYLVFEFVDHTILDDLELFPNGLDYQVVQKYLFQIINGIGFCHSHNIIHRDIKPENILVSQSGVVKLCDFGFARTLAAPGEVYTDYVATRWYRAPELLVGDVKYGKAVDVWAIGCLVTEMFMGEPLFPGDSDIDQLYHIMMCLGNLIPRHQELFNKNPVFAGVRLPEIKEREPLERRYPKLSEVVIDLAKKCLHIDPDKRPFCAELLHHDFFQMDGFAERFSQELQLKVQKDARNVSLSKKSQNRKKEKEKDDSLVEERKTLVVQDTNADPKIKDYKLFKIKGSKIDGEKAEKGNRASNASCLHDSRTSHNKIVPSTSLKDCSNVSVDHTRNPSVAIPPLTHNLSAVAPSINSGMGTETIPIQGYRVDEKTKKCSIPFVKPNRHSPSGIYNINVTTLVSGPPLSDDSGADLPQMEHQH
Outline: as §1

FGFR3(h) = FGFR3(h) (Homo sapiens, UniProt P22607)
Outline: as §1

GSK3α(h) = molecular target: T3, GSK3α(h) (Homo sapiens, UniProt P49840)
T3 construct: gene GSK3A
Outline: as §1

MSK2(h) = molecular target: T4, MSK2(h) (Homo sapiens, UniProt O75676)
T4 construct: gene RPS6KA4
Outline: as §1

[1] = molecular target: T5, PI3 Kinase (p110a/p65a)(m) (Mus musculus, UniProt P42337)
T5 construct: gene Pik3ca; with p65a
Outline: as §1

PKCβII(h) = molecular target: T6, PKCβII(h) (Homo sapiens, UniProt P05771)
T6 construct: gene PRKCB; isoform beta II
Outline: as §1

STK39(h) = STK39(h) (Homo sapiens, UniProt Q9UEW8)
Outline: as §1

TTK(h) = molecular target: T7, TTK(h) (Homo sapiens, UniProt P33981)
T7 sequence (P33981 1-857): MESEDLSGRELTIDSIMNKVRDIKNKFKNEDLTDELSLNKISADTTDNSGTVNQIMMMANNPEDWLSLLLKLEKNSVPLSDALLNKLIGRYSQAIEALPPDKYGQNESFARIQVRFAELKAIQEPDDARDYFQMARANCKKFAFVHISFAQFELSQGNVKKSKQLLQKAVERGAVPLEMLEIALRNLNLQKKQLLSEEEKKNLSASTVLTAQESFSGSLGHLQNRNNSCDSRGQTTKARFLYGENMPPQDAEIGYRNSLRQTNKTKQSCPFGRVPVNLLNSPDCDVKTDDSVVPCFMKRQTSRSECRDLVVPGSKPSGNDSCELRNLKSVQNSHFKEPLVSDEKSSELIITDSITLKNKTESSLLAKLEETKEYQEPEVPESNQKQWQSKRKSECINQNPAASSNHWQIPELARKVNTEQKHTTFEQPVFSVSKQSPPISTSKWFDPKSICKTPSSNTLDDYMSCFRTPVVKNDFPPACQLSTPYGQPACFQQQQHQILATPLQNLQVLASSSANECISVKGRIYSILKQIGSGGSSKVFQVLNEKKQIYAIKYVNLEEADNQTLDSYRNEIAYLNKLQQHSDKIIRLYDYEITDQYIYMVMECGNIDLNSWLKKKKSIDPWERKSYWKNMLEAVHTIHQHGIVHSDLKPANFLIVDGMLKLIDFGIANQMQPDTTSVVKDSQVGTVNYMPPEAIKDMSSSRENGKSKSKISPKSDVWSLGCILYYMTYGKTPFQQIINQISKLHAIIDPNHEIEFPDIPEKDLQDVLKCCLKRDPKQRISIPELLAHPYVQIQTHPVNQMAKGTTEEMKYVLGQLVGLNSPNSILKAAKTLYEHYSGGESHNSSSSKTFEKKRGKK
Outline: as §1

TrkB(h) = molecular target: T8, TrkB(h) (Homo sapiens, UniProt Q16620)
T8 construct: gene NTRK2
Outline: as §1

Yes(h) = molecular target: T9, Yes(h) (Homo sapiens, UniProt P07947)
T9 construct: gene YES1
Outline: as §1

[2] = read-out: Residual activity (%) 5ay
[3] = read-out: Residual activity (%) Spautin-1 5aa
[4] = read-out: Residual activity (%) 5at
[5] = read-out: Residual activity (%) 5as

T3 sequence (P49840 whole entry): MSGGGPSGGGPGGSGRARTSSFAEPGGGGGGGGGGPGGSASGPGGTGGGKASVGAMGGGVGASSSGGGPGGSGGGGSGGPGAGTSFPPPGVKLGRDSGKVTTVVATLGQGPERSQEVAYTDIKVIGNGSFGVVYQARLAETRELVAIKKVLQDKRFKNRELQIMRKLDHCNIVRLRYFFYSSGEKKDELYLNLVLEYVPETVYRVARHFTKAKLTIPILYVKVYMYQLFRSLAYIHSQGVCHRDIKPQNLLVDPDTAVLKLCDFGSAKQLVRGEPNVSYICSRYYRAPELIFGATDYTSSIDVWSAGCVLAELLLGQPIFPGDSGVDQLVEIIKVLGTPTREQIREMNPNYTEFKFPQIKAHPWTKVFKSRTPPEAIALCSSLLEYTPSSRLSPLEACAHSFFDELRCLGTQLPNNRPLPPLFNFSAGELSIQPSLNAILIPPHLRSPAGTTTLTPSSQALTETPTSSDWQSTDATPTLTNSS
T5 sequence (P42337 whole entry): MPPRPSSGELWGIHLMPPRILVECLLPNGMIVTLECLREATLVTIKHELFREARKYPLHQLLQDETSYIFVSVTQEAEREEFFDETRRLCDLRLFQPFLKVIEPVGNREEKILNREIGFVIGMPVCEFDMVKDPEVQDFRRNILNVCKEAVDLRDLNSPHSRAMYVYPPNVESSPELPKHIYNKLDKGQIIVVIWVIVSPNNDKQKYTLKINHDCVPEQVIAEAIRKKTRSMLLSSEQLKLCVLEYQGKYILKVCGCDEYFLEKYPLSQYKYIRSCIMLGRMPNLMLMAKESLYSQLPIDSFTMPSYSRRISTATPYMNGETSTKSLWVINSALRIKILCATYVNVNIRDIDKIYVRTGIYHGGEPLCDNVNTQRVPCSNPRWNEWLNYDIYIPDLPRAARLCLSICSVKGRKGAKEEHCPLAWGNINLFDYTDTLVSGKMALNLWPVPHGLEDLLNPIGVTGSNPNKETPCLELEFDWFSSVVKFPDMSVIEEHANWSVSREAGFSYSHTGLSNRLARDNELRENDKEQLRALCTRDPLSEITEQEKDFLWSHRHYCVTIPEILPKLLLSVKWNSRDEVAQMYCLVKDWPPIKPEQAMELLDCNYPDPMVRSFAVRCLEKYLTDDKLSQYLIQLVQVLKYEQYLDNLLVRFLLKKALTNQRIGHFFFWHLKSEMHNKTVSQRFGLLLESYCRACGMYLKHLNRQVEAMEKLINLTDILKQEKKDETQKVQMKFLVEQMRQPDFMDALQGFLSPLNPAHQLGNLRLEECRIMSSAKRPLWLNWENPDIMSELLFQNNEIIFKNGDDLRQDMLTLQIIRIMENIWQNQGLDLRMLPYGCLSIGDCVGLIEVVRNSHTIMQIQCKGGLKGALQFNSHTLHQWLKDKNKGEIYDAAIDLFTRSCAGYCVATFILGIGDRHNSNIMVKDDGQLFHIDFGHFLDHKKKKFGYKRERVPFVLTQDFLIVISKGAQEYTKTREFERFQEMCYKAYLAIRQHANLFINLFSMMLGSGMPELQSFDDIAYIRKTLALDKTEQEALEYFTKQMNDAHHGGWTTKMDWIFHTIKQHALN
T5 sequence (P26450 whole entry partner): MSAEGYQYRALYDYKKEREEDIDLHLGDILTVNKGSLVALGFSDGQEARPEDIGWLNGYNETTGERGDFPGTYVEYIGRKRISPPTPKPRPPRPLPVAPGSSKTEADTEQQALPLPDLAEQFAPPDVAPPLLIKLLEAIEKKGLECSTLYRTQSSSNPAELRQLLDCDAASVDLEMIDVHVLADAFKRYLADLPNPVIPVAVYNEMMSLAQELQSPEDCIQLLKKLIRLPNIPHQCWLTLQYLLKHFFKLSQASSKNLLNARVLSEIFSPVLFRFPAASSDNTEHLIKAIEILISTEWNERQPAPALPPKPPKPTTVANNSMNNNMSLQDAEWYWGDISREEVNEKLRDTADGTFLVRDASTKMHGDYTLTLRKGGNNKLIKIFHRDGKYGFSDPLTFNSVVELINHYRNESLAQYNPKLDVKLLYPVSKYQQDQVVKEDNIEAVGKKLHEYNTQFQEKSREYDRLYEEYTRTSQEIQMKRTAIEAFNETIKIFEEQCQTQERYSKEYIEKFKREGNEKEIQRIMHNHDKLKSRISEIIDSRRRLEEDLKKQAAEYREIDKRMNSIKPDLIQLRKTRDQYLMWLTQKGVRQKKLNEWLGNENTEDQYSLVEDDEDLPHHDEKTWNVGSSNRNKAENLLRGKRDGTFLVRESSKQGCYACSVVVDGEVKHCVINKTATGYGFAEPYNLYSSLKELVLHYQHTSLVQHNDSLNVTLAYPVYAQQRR
T1 sequence (P00520 whole entry): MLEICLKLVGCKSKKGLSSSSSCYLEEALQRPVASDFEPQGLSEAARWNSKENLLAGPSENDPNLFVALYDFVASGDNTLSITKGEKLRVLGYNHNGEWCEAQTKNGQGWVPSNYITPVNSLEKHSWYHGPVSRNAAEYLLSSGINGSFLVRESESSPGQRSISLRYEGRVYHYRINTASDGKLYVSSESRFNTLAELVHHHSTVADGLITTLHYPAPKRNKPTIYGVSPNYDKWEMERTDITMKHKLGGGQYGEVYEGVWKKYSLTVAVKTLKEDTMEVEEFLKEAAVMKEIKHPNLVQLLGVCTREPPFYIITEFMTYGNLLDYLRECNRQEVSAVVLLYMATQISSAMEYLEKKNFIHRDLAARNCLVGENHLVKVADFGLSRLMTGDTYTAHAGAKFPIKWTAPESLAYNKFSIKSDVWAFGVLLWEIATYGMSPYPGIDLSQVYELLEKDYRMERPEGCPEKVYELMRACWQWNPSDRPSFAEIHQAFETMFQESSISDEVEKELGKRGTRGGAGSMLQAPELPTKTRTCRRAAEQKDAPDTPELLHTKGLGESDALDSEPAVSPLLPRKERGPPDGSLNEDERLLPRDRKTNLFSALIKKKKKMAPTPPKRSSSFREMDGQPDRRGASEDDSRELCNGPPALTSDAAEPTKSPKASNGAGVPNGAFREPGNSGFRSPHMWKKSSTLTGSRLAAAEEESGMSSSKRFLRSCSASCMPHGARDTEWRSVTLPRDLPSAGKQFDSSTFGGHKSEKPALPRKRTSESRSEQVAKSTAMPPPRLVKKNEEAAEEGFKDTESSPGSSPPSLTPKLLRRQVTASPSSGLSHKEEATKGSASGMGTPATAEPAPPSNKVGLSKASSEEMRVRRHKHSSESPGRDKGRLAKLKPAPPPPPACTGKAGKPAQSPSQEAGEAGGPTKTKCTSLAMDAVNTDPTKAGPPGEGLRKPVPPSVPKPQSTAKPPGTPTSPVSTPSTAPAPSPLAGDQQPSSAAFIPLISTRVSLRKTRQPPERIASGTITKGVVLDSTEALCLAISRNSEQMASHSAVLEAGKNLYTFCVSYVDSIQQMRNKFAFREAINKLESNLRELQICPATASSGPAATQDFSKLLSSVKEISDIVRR
T6 sequence (P05771 whole entry, canonical isoform): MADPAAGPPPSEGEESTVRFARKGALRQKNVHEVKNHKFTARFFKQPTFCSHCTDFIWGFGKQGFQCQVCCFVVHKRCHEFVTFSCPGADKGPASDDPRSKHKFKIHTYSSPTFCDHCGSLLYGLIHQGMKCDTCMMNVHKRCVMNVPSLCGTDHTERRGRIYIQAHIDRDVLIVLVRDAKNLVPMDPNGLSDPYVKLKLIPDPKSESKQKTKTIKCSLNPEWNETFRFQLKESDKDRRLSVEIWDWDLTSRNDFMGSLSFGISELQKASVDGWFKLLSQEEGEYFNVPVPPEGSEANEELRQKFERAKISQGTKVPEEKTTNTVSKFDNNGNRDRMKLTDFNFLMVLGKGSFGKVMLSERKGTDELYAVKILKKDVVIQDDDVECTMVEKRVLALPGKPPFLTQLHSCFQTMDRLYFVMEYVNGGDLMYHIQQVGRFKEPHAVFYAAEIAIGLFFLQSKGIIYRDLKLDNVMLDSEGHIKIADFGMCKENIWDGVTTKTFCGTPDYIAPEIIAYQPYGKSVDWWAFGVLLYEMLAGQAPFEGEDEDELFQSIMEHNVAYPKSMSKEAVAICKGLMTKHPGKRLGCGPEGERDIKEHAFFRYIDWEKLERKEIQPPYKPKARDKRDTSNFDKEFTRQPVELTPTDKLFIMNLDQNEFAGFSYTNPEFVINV
T4 sequence (O75676 whole entry): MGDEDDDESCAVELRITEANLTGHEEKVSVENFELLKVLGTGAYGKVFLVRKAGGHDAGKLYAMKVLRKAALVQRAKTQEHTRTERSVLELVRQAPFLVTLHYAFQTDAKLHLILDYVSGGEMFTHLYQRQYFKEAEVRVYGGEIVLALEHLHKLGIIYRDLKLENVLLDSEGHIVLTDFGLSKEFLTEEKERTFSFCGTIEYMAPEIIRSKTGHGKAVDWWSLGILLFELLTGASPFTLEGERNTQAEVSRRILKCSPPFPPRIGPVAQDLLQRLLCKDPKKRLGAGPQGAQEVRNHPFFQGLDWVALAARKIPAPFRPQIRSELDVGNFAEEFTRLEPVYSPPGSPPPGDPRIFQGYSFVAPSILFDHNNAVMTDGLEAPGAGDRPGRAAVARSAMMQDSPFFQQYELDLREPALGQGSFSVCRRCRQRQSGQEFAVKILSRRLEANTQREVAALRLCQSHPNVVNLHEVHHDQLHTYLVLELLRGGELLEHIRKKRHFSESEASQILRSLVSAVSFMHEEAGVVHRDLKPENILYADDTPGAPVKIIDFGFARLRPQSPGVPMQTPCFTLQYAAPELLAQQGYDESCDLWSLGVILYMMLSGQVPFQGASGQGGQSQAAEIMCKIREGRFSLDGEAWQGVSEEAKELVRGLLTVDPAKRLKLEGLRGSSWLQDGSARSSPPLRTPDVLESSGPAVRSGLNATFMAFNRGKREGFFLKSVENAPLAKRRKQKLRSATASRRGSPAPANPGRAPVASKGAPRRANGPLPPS

COc1ccc2ncnc(Nc3cccc(F)c3)c2c1 [5ay, N-(3-Fluorophenyl)-6-Methoxy-4-Quinazolinamine]
remaining activity at 10 µM (Abl(m); [2]): 56% | remaining activity at 10 µM (CDKL2(h); [2]): 67% | remaining activity at 10 µM (FGFR3(h); [2]): 94% | remaining activity at 10 µM (GSK3α(h); [2]): 69% | remaining activity at 10 µM (MSK2(h); [2]): 88% | remaining activity at 10 µM [1, 2]: 101% | remaining activity at 10 µM (PKCβII(h); [2]): 110% | remaining activity at 10 µM (STK39(h); [2]): 114% | remaining activity at 10 µM (TTK(h); [2]): 104% | remaining activity at 10 µM (TrkB(h); [2]): 96% | remaining activity at 10 µM (Yes(h); [2]): 72%

Fc1ccc(CNc2ncnc3ccc(F)cc23)cc1 [5aa, 6-Fluoro-N-(4-fluorobenzyl)-4-Quinazolinamine]
remaining activity at 10 µM (Abl(m); [3]): 90% | remaining activity at 10 µM (CDKL2(h); [3]): 87% | remaining activity at 10 µM (FGFR3(h); [3]): 97% | remaining activity at 10 µM (GSK3α(h); [3]): 93% | remaining activity at 10 µM (MSK2(h); [3]): 91% | remaining activity at 10 µM [1, 3]: 98% | remaining activity at 10 µM (PKCβII(h); [3]): 107% | remaining activity at 10 µM (STK39(h); [3]): 75% | remaining activity at 10 µM (TTK(h); [3]): 64% | remaining activity at 10 µM (TrkB(h); [3]): 87% | remaining activity at 10 µM (Yes(h); [3]): 92%

Fc1ccc2ncnc(NCCc3ccc(Cl)cc3)c2c1 [5at, N-[2-(4-Chlorophenyl)Ethyl]-6-Fluoro-4-Quinazolinamine]
remaining activity at 10 µM (Abl(m); [4]): 99% | remaining activity at 10 µM (CDKL2(h); [4]): 67% | remaining activity at 10 µM (FGFR3(h); [4]): 99% | remaining activity at 10 µM (GSK3α(h); [4]): 102% | remaining activity at 10 µM (MSK2(h); [4]): 97% | remaining activity at 10 µM [1, 4]: 87% | remaining activity at 10 µM (PKCβII(h); [4]): 104% | remaining activity at 10 µM (STK39(h); [4]): 91% | remaining activity at 10 µM (TTK(h); [4]): 89% | remaining activity at 10 µM (TrkB(h); [4]): 81% | remaining activity at 10 µM (Yes(h); [4]): 84%

Fc1ccc(CCNc2ncnc3ccc(F)cc23)cc1 [5as, 6-Fluoro-N-[2-(4-Fluorophenyl)Ethyl]-4-Quinazolinamine]
remaining activity at 10 µM (Abl(m); [5]): 83% | remaining activity at 10 µM (CDKL2(h); [5]): 103% | remaining activity at 10 µM (FGFR3(h); [5]): 108% | remaining activity at 10 µM (GSK3α(h); [5]): 101% | remaining activity at 10 µM (MSK2(h); [5]): 96% | remaining activity at 10 µM [1, 5]: 86% | remaining activity at 10 µM (PKCβII(h); [5]): 100% | remaining activity at 10 µM (STK39(h); [5]): 100% | remaining activity at 10 µM (TTK(h); [5]): 84% | remaining activity at 10 µM (TrkB(h); [5]): 81% | remaining activity at 10 µM (Yes(h); [5]): 86%

Reference: paper PMC7827406, “Structure–Activity Relationship (SAR) Study of Spautin-1 to Entail the Discovery of Novel NEK4 Inhibitors” (International Journal of Molecular Sciences, 2021)
